Patent publication US8329645B2, “Polymyxin derivatives and uses thereof” (priority 2008, dated 2012)

Key:
E. cloacae ATCC23355 = assay: E-test MIC with or without NAB7061 (4 μg/ml), Mueller-Hinton agar; type: cell-based, Enterobacter cloacae
Procedure: (§1) MICs were determined by using E-strips (Biodisk Ltd., Solna, Sweden) according to the manufacturer's instructions.
(§2) The strains originated from ATCC (11 strains), CCUG (11 strains), and NCTC (The National Collection of Type Cultures, Colindale, U.K.; 2 strains). Eight strains (the F-strains) were purchased from Mobidiag Ltd., Helsinki, Finland.

E. coli ATCC25922 = details: E. coli ATCC25922
Procedure: as §1, §2

K. pneumoniae ATCC13883 = details: K. pneumoniae ATCC13883
Procedure: as §1, §2

E. coli IH3080 = assay: E-test MIC with or without NAB7061 (4 μg/ml), Mueller-Hinton agar; type: cell-based, Escherichia coli
Procedure: as §1, §2

[1] = tested on: E. coli (ATCC25922 and IH3080), K. pneumoniae ATCC13883, and E. cloacae ATCC23355; assay: E-test sensitization by NAB7061, range over the tested strains; type: cell-based; details: four tested strains
Procedure: as §1

P. aeruginosa ATCC 27853 = assay: E-test MIC of antibiotics on Mueller Hinton agar containing increasing concentrations of NAB739; type: cell-based, Pseudomonas aeruginosa
[2] = tested on: both Acinetobacter strains (ATCC 19606 and F264); assay: E-test sensitization by NAB739, both strains; type: cell-based, Acinetobacter baumannii
A. baumannii ATCC19606 = assay: E-test MIC of antibiotics on Mueller Hinton agar containing increasing concentrations of NAB739; type: cell-based, Acinetobacter baumannii
A. baumannii F264 = assay: as above; type: cell-based, Acinetobacter baumannii

Compound | Sensitization factor to antibiotic (MIC without / with 4 μg/ml of NAB 7061) (E. cloacae ATCC23355) | Sensitization factor to antibiotic (MIC without / with 4 μg/ml of NAB 7061) (E. coli ATCC25922) | Sensitization factor to antibiotic (MIC without / with 4 μg/ml of NAB 7061) (K. pneumoniae ATCC13883) | Sensitization factor to antibiotic (MIC without / with 4 μg/ml of NAB 7061) (E. coli IH3080) | Sensitization factor to antibiotic at 4 μg/ml of NAB7061, range over the tested strains [1] | MIC of antibiotic in the presence of NAB739 (P. aeruginosa ATCC 27853; NAB 739 0 μg/ml) [µg/mL] | MIC of antibiotic in the presence of NAB739 (P. aeruginosa ATCC 27853; NAB 739 0.5 μg/ml) [µg/mL] | MIC of antibiotic in the presence of NAB739 (P. aeruginosa ATCC 27853; NAB 739 1 μg/ml) [µg/mL] | MIC of antibiotic in the presence of NAB739 (P. aeruginosa ATCC 27853; NAB 739 2 μg/ml) [µg/mL] | MIC of antibiotic in the presence of NAB739 (P. aeruginosa ATCC 27853; NAB 739 […]) [µg/mL] | sensitization factors to antibiotic at NAB739 0.5 μg/ml [2] | MIC of antibiotic in the presence of NAB739 (A. baumannii ATCC19606; NAB 739 0 μg/ml) [µg/mL] | MIC of antibiotic in the presence of NAB739 (A. baumannii ATCC19606; NAB 739 0.5 μg/ml) [µg/mL] | MIC of antibiotic in the presence of NAB739 (A. baumannii ATCC19606; NAB 739 1 μg/ml) [µg/mL] | MIC of antibiotic in the presence of NAB739 (A. baumannii F264; NAB 739 0 μg/ml) [µg/mL] | MIC of antibiotic in the presence of NAB739 (A. baumannii F264; NAB 739 0.5 μg/ml) [µg/mL] | MIC of antibiotic in the presence of NAB739 (A. baumannii F264; NAB 739 1 μg/ml) [µg/mL]
CC[C@H]1OC(=O)[C@H](C)[C@@H](O[C@H]2C[C@@](C)(OC)[C@@H](O)[C@H](C)O2)[C@H](C)[C@@H](O[C@@H]2O[C@H](C)C[C@H](N(C)C)[C@H]2O)[C@](C)(O)C[C@@H](C)CN(C)[C@H](C)[C@@H](O)[C@]1(C)O [Azithromycin] | 32 | 24-64 | 31-43 | 31-94 | 31-94 | – | – | – | – | – | – | – | – | – | – | – | –
CN[C@H](CC(C)C)C(=O)N[C@H]1C(=O)N[C@@H](CC(N)=O)C(=O)N[C@H]2C(=O)N[C@H]3C(=O)N[C@H](C(=O)N[C@H](C(=O)O)c4cc(O)cc(O)c4-c4cc3ccc4O)[C@H](O)c3ccc(c(Cl)c3)Oc3cc2cc(c3O[C@@H]2O[C@H](CO)[C@@H](O)[C@H](O)[C@H]2O[C@H]2C[C@](C)(N)[C@H](O)[C@H](C)O2)Oc2ccc(cc2Cl)[C@H]1O [Vancomycin] | 32 | 5 | 1 | 2.5 | – | >256 | >256 | >256 | >256 | >256 | 85 | >256 | 3 | 1 | >256 | 3 | 1
C/C(=C\C(=O)OCCCCCCCCC(=O)O)C[C@@H]1OC[C@H](C[C@@H]2O[C@H]2[C@@H](C)[C@H](C)O)[C@@H](O)[C@H]1O [Mupirocin] | 250-512 | 64-170 | 24-32 | 64-85 | 24-512 | – | – | – | – | – | – | – | – | – | – | – | –
CC(=O)O[C@H]1C[C@@]2(C)[C@@H](C[C@@H](O)[C@H]3[C@@]4(C)CC[C@@H](O)[C@@H](C)[C@@H]4CC[C@@]32C)/C1=C(\CCC=C(C)C)C(=O)O [Fusidic acid] | >8 | >43 | >4 | >43 | – | >256 | >256 | >256 | 192 | >256 | 64-85 | >256 | 4 | 1 | >256 | 3 | 1
